Measured values reported in ChEMBL document CHEMBL1201862, “PubChem BioAssay data set” (2004).
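Grown in 96-well plates, cells were treated for 48 hours with each compound at five concentrations. Insufficient inhibition: endpoint recorded as highest concentration tested. Abbreviation: GI50, concentration required for 50% inhibition of growth.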 Calls of active or inactive are those of the source. No stated cut-off is given here; in the data, active = GI50 up to about 1.1 µM and inactive = higher.

Key:
Experiment in all cases: NCI tumour cell line growth inhibition, 48 h
[1] = tested on: HCC 2998
[2] = tested on: T47D
[3] = tested on: UACC-62
[4] = tested on: SK-OV-3
[5] = tested on: MDA-MB-435
[6] = tested on: CAKI-1
[7] = tested on: KM12
[8] = tested on: TK-10
[9] = tested on: 786-0
[10] = tested on: HOP-92
[11] = tested on: NCI-H226
[12] = tested on: HL-60
[13] = tested on: SF-539
[14] = tested on: SNB-19
[15] = tested on: NCI-H460
[16] = tested on: Hs-578T
[17] = tested on: A549
[18] = tested on: SN12C
[19] = tested on: NCI-H522
[20] = tested on: OVCAR-5

Measured: GI50

CC(C)[Si]1(C(C)C)OCC2OC3(CO)C(Oc4nc(=O)ccn43)C2O[Si](C(C)C)(C(C)C)O1 (stereo not given)
inactive: [1] 12.5 µM | [2] 9.59 µM | [3] 12.8 µM | [4] 20 µM | [5] 15 µM | [6] 15.7 µM | [7] 13.3 µM | [8] 16.6 µM | [9] 14.6 µM | [10] 16.5 µM | [11] 15.2 µM | [12] 6.17 µM | [13] 15 µM | [14] 15.9 µM | [15] 15 µM | [16] 22.4 µM

Nc1ncc2c(n1)-c1ccccc1OC2N1CCCCC1 (stereo not given)
inactive: [2] > 100 µM | [17] > 100 µM | [3] > 100 µM | [4] > 100 µM | [5] > 100 µM | [18] > 100 µM | [6] > 100 µM | [7] > 100 µM | [8] > 100 µM | [19] > 100 µM | [9] > 100 µM | [10] > 100 µM | [11] > 100 µM | [12] > 100 µM | [13] > 100 µM | [14] > 100 µM | [15] > 100 µM | [16] > 100 µM | [20] > 100 µM

COc1ccc(C2CC(C)(O)Oc3cc4c(cc32)OCO4)cc1 (stereo not given)
inactive: [1] 47.6 µM | [2] 2.02 µM | [17] 30.5 µM | [3] 36.9 µM | [5] 7.14 µM | [18] 45.8 µM | [6] 41.7 µM | [7] 27.3 µM | [8] 36.1 µM | [19] 11.2 µM | [9] 37.2 µM | [10] 28.4 µM | [11] 53.7 µM | [12] 17.6 µM | [13] 38.9 µM | [14] 38.4 µM | [15] 31.4 µM | [16] 26.6 µM | [20] 55.7 µM

O=C1CC(c2ccccc2)Oc2ccccc21 (stereo not given) [FLAVANONE]
inactive: [1] 76.9 µM | [2] 35.8 µM | [3] 51.3 µM | [4] 84.1 µM | [5] 31.9 µM | [6] 48.3 µM | [7] 35.7 µM | [8] 76.4 µM | [9] 29.3 µM | [10] 24.9 µM | [11] 32.4 µM | [12] 21.5 µM | [13] 21.8 µM | [14] 23.1 µM | [15] 32.1 µM | [16] 67.3 µM

OC1(c2ccccc2)C2CC=CC2C1(c1ccccc1)c1ccccc1 (stereo not given)
inactive: [1] 19.8 µM | [2] 23.1 µM | [17] 25.2 µM | [3] 23.9 µM | [4] 38.9 µM | [5] 20.7 µM | [18] 30.1 µM | [6] 17.1 µM | [7] 20.6 µM | [8] 29.6 µM | [19] 13.5 µM | [9] 61.7 µM | [10] 33.3 µM | [12] 27.8 µM | [13] 77.1 µM | [14] 51.3 µM | [15] 27 µM | [16] 38.3 µM | [20] 60.8 µM

N#CCC12CC=CCC1=C(O)C(=O)c1ccc(O)cc12 (stereo not given)
inactive: [1] > 100 µM | [2] > 100 µM | [17] > 100 µM | [3] > 100 µM | [4] > 100 µM | [5] > 100 µM | [18] > 100 µM | [6] > 100 µM | [7] > 100 µM | [8] > 100 µM | [19] > 100 µM | [9] > 100 µM | [11] 68.5 µM | [12] > 100 µM | [13] > 100 µM | [14] > 100 µM | [15] > 100 µM | [16] 58.1 µM | [20] > 100 µM

COC(=O)C1=NN2c3ccccc3C(=O)OCCC2C1 (stereo not given)
inactive: [1] > 100 µM | [2] > 100 µM | [17] > 100 µM | [3] > 100 µM | [4] > 100 µM | [5] > 100 µM | [18] > 100 µM | [6] > 100 µM | [7] > 100 µM | [8] > 100 µM | [19] > 100 µM | [9] > 100 µM | [10] 46.5 µM | [11] > 100 µM | [12] > 100 µM | [13] > 100 µM | [15] > 100 µM | [16] > 100 µM | [20] > 100 µM

CN(C)Cc1cc(C(C)(C)C)cc(C2CCCCC2)c1O
inactive: [2] 3.58 µM | [17] 13.6 µM | [3] 16.1 µM | [4] 15 µM | [5] 20.3 µM | [18] 15.7 µM | [6] 19.9 µM | [7] 13.6 µM | [8] 15.5 µM | [19] 20.2 µM | [9] 20.7 µM | [11] 15.7 µM | [12] 18.2 µM | [13] 10.9 µM | [14] 13 µM | [15] 19.1 µM | [16] 16.6 µM | [20] 17 µM

COC(=O)Cc1c(-c2[nH]c3ccccc3c2CC(=O)OC)[nH]c2ccccc12
inactive: [1] > 57 µM | [2] 2.13 µM | [17] > 52.6 µM | [3] > 49 µM | [4] > 58.1 µM | [5] > 54 µM | [18] > 59.4 µM | [6] > 37.2 µM | [7] 26.3 µM | [8] > 53.2 µM | [19] > 28.6 µM | [9] 33.7 µM | [10] > 50.9 µM | [11] > 54.7 µM | [13] 67.5 µM | [14] 53.5 µM | [15] > 63 µM | [16] > 68.4 µM | [20] > 54.8 µM

COC(=O)C(=O)C(C(=O)C(=O)Nc1ccc(Cl)c(Cl)c1)c1nc2ccc(C(=O)c3ccccc3)cc2nc1O (stereo not given)
inactive: [2] 49 µM | [17] > 100 µM | [3] > 100 µM | [4] 97.3 µM | [5] 35.4 µM | [18] > 100 µM | [6] 22.5 µM | [7] 29 µM | [8] > 100 µM | [19] 27.7 µM | [9] > 100 µM | [10] > 100 µM | [11] 56.4 µM | [12] 45 µM | [13] 62.2 µM | [14] 45.6 µM | [16] 22.1 µM | [20] > 100 µM

CO/N=C1/C(n2[nH]c(=O)n(-c3ccccc3)c2=O)C2C=CC1n1c(=O)n(-c3ccccc3)c(=O)n12 (stereo not given)
inactive: [1] > 100 µM | [2] > 100 µM | [17] > 100 µM | [3] > 100 µM | [4] > 100 µM | [5] > 100 µM | [18] > 100 µM | [6] > 100 µM | [7] > 100 µM | [8] > 100 µM | [19] > 100 µM | [9] > 100 µM | [11] > 100 µM | [12] > 100 µM | [13] > 100 µM | [14] > 100 µM | [15] > 100 µM | [16] > 100 µM | [20] > 100 µM

S=c1nc(N2CCCCC2)c2cn[nH]c2[nH]1
inactive: [1] 44 µM | [2] 59.6 µM | [17] 76.7 µM | [3] 50.1 µM | [5] 46.1 µM | [18] 79.8 µM | [6] 27.7 µM | [7] 29.5 µM | [8] 39.2 µM | [19] 16.7 µM | [9] 88.5 µM | [11] > 100 µM | [12] 19.6 µM | [13] 52.6 µM | [14] > 100 µM | [15] 42.3 µM | [16] 57.4 µM | [20] > 100 µM

CN(C)CCNc1ccc([N+](=O)[O-])c2sc3ccccc3c(=O)c12
inactive: [1] 2.92 µM | [2] 13.7 µM | [17] 3.83 µM | [3] 4.61 µM | [4] 7.71 µM | [5] 5.19 µM | [18] 4.46 µM | [7] 5.19 µM | [8] 12.3 µM | [19] 1.56 µM | [9] 3.38 µM | [10] 3.84 µM | [11] 6.11 µM | [12] 2.66 µM | [13] 3.65 µM | [14] 5.14 µM | [15] 1.65 µM | [16] 5.52 µM | [20] 3.03 µM

CCOC(=O)c1c2ccccc2n2c(=O)n(-c3ccc(OC)cc3)nnc12
inactive: [1] > 100 µM | [2] 24.3 µM | [17] 46.5 µM | [3] 11.2 µM | [4] 26.7 µM | [5] > 37.1 µM | [18] > 83.8 µM | [6] > 45.7 µM | [7] 88.1 µM | [8] 46.6 µM | [9] 17 µM | [10] 21.7 µM | [11] 23.3 µM | [12] 21.1 µM | [13] 19.5 µM | [14] 34.2 µM | [15] > 95.1 µM | [16] 19.9 µM | [20] 46.1 µM

COC1=C(OC)C(=O)C(Cc2c(Cl)nc3sccn23)=C(C)C1=O
inactive: [1] 15.7 µM | [2] 2.76 µM | [17] 11.6 µM | [3] 5.2 µM | [4] 10.1 µM | [5] 8.91 µM | [18] 13.4 µM | [6] 14.3 µM | [7] 10.4 µM | [8] 12.9 µM | [19] 6.15 µM | [9] 16.7 µM | [12] 2.42 µM | [13] 12.5 µM | [14] 13.5 µM | [15] 12.8 µM | [16] 11.4 µM | [20] 16.9 µM
